In PMC7562955 (Nature Communications, 2020):

Target: T1, human TLR9 (Homo sapiens, UniProt Q9NR96)
T1 construct: host or cells: HEK293 (TLR9/NF-κB/SEAPorter)
T1 sequence (Q9NR96 26-1032): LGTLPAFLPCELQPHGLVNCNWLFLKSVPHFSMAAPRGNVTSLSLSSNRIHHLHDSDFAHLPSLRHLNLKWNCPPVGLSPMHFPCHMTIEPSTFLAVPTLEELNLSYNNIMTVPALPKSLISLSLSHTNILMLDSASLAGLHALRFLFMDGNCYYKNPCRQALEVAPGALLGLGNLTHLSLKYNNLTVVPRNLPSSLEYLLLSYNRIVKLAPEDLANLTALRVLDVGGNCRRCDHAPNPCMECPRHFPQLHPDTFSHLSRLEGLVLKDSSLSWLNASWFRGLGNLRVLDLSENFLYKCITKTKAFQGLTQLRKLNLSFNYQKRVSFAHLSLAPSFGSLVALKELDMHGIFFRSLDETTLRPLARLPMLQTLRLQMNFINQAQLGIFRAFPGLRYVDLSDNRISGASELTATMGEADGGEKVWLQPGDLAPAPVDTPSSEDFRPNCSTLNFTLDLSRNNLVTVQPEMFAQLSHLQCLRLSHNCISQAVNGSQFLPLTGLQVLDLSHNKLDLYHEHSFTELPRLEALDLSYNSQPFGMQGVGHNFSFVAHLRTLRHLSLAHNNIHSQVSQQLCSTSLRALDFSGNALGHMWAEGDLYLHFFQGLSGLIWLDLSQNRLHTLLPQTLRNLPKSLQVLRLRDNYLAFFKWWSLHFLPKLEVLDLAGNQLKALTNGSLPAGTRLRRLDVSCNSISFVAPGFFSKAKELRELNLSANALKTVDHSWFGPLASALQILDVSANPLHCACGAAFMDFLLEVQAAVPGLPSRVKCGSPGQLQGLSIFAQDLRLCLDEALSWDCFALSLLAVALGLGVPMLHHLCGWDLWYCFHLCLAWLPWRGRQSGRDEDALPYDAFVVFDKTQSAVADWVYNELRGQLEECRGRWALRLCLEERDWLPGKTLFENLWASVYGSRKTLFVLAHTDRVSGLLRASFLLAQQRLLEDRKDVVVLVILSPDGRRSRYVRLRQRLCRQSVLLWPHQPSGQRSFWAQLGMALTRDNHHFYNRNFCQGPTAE
Assay: Human TLR9 reporter gene inhibitory activity assay (NF-κB/SEAP HEK293)
Assay type: cell-based
Conditions: for human TLR9 activity, reporter signal: CpG2006 500 nM
Experimental: Compounds were dissolved in dimethyl sulfoxide. Before stimulation with compound, Human TLR7 reporter cell line (TLR7/NF-κB/SEAPorter^TM HEK293 cell, Novus Biological, USA), human TLR8 reporter cell line (TLR8/NF-κB/SEAPorter^TM HEK293 cell, Novus Biological), and human TLR9 reporter cell line (TLR9/NF-κB/SEAPorter^TM HEK293 cell, Novus Biological) were seeded in 96-well microtiter plate (AGC techno glass, Japan) at 5 × 10^4 cells/well in DMEM (GIBCO, United Kingdam) with 10 % fetal bovine serum (GIBCO), and 10 ug/ml Blastcidin S HCl (GIBCO) and incubated at 37 °C in 5% CO2. The plates were incubated over-night and then stimulated with various concentrations of compound. […] After 30 min, R848 (human TLR7/8 ligand, synthesized at Sumitomo Dainippon Pharma, Japan) or CpG2006 (human TLR9 ligand, Hokkaido System Science Co., Ltd., Japan) added to each well, wherein each final concentration were adjusted to 200 nM R848 (human TLR7), 30 μM R848 (human TLR8), or 500 nM CpG2006 (human TLR9). The plates were then incubated an additional 20 ± 1 h at 37 °C in 5% CO2 and then the secreted embryonic alkaline phosphatase (SEAP) activity was measured as activation of human TLR7, 8, and 9. The SEAP activity was evaluated as follows: pNPP (Invitrogen, USA) was added to the incubated sample (50 μl/well); after 15 min, 4 M sodium hydroxide solution (nacalai tesque, Japan) was added thereto (50 μl/well) to quench the reaction; and the absorbance of each sample was measured at 405 nm with microplate reader SpectraMax M4 (Molecular Devices, USA).

Row | SMILES | human TLR9 activity, reporter signal (compound 0.0001 nM (as headed)) | human TLR9 activity, reporter signal (compound 0.001 nM (as headed)) | human TLR9 activity, reporter signal (compound 0.003 nM (as headed)) | human TLR9 activity, reporter signal (compound 0.01 nM (as headed)) | human TLR9 activity, reporter signal (compound 0.03 nM (as headed)) | human TLR9 activity, reporter signal (compound 0.1 nM (as headed)) | human TLR9 activity, reporter signal (compound 0.3 nM (as headed)) | human TLR9 activity, reporter signal (compound 1 nM (as headed)) | human TLR9 activity, reporter signal (compound 3 nM (as headed)) | human TLR9 activity, reporter signal (compound 10 nM (as headed)) | human TLR9 activity, reporter signal (compound 30 nM (as headed)) | human TLR9 activity, reporter signal (compound 100 nM (as headed)) | inhibition of TLR9
1 | CCOc1nc(N)c2nc(-c3cncc(F)c3)n(Cc3ccc(CN4C[C@@H]5C[C@H]4CN5C)cc3)c2n1 [Cpd-6] | 0.3816 | 0.371 | 0.3771 | 0.3689 | 0.3826 | 0.3836 | 0.372 | 0.3752 | 0.3176 | 0.265 | 0.06893 | 0.01837 | –
2 | CCN(CCO)CCCC(C)Nc1ccnc2cc(Cl)ccc12 (centres unmarked) [HCQ, hydroxychloroquine, reference compound] | 0.3549 | – | – | 0.3663 | 0.3271 | 0.2912 | 0.1984 | 0.0758 | 0.0184 | -0.013 | -0.01145 | -0.00085 | –
3 | CCCCOc1nc(N)c2nc(-c3cccnc3)n(Cc3ccccc3)c2n1 [Cpd-5] | 0.3823 | 0.4021 | 0.4541 | 0.4157 | 0.4224 | 0.4068 | 0.4193 | 0.3613 | 0.3381 | 0.3129 | 0.2475 | 0.2357 | without causing any inhibition
4 | CCOc1nc(C)c2nc(-c3cncc(F)c3)n(Cc3ccc(CN4C[C@@H]5C[C@H]4CN5C)cc3)c2n1 [Cpd-7] | 0.3816 | 0.3944 | 0.4214 | 0.4209 | 0.4048 | 0.3963 | 0.3799 | 0.3655 | 0.3183 | 0.2034 | 0.05003 | -0.002975 | –
